Residues, ends and D or L forms follow the SMILES beside them.
Tested on: P-selectin
Test: Inhibition of binding of human neutrophils to P-selectin (neutrophil adhesion to purified P-selectin immobilized on plastic wells)
Type: cell-based
Details: P-selectin isolated from human platelets, plated at 5 micrograms/mL, myeloperoxidase readout, peptides tested 1.0 mM to 0.001 mM
Text: Peptides can be screened for their ability to inhibit adhesion to cells, for example, neutrophil adhesion to purified P-selectin immobilized on plastic wells, using the assay described by Geng, et al., Nature 343, 757-760 (1990).
Human neutrophils are isolated from heparinized whole blood by density gradient centrifugation on Mono-Poly resolving media, Flow Laboratories. Neutrophil suspensions are greater than 98% pure and greater than 95% viable by trypan blue exclusion. For adhesion assays, neutrophils are suspended at a concentration of 2×10^6 cells/mL in Hanks' balanced salt solution containing 1.26 mM Ca^2+ and 0.81 mM Mg^2+ (HBSS, Gibco) with 0.05 mg/mL human serum albumin (HBSS/HSA). Adhesion assays are conducted in triplicate in 96-well microtiter plates, Corning, incubated at 4° C. overnight with 50 microliters of various protein solutions.
P-selectin is isolated from human platelet lysates by immunoaffinity chromatography on antibody S12-Sepharose™ and ion-exchange chromatography on a Mono-Q™ column (FLPC, Pharmacia Fine Chemicals), as follows.
Outdated human platelet packs (100 units) obtained from a blood bank and stored at 4° C. are pooled, adjusted to 5 mM EDTA at pH 7.5, centrifuged at 4,000 rpm for 30 minutes in 1 liter bottles, then washed three times with 1 liter of 0.1M NaCl, 20 mM Tris pH 7.5 (TBS), 5 mM EDTA, 5 mM benzamidine.
The pellets are then resuspended in a minimum amount of wash buffer and made 1 mM in DIFP, then frozen in 50 mL screwtop tubes at -80° C. The frozen platelets are thawed and resuspended in 50 mL TBS, 5 mM benzamidine, 5 mM EDTA pH 7.5, […]. The suspension is frozen and thawed two times in a dry ice-acetone bath using a 600 mL lyophilizing flask, then homogenized in a glass/teflon mortar and pestle and made 1 mM in DIFP. The NaCl concentration is adjusted to 0.5M with a stock solution of 4M NaCl. After stirring the suspension at 4° C., it is centrifuged in polycarbonate tubes at 33,000 rpm for 60 minutes at 4° C. The supernatant (0.5M NaCl wash) is removed and saved; this supernatant contains the soluble form of P-selectin. Care is taken not to remove the top part of the pellet with the supernatant. The pellets are then homogenized in extraction buffer (TBS, 5 mM benzamidine, 5 mM EDTA, pH 7.5, 100 μM leupeptin, 2% Triton X-100). After centrifugation at 19,500 rpm for 25 minutes at 4° C., the supernatant is removed. The extraction procedure is repeated with the pellet and the supernatant is combined with the first supernatant. The combined extracts, which contain the membrane form of P-selectin, are adjusted to 0.5M NaCl.
The soluble fraction (0.5M NaCl wash) and the membrane extract (also adjusted to 0.5M NaCl) are absorbed with separate pools of the monoclonal antibody S12 (directed to P-selectin) previously coupled to Affigel (Biorad) at 5 mg/mL for 2 hours at 4° C. After letting the resins settle, the supernatants are removed. The S12 Affigel containing bound GMP-140 is then loaded into a column and washed overnight at 4° C. with 400 mL of 0.5M NaCl, 20 mM Tris pH 7.5, 0.01% Lubrol PX.
Bound P-selectin is eluted from the S12 Affigel with 100 mL of 80% ethylene glycol, 1 mM MES pH 6.0, 0.01% Lubrol PX. Peak fractions with absorbance at 280 nm are pooled. Eluates are dialyzed against TBS with 0.05% Lubrol, then applied to a Mono Q column (FPLC from Pharmacia). The concentrated protein is step eluted with 2M NaCl, 20 mM Tris pH 7.5 (plus 0.05% Lubrol PX for the membrane fraction). Peak fractions are dialyzed into TBS pH 7.5 (plus 0.05% Lubrol PX for the membrane fraction).
P-selectin is plated at 5 micrograms/mL and the control proteins: human serum albumin (Alb), platelet glycoprotein IIb/IIIa (IIb), von Willebrand factor (vWF), fibrinogen (FIB), thrombomodulin (TM), gelatin (GEL) or human serum (HS), are added at 50 micrograms/mL. […]

Row | Structure (SMILES) | IC50
1 | CC[C@H](C)[C@H](NC(=O)[C@H](Cc1ccccc1)NC(=O)[C@@H](NC(=O)[C@H](CC(C)C)NC(=O)[C@H](CCCCN)NC(=O)[C@@H](NC(=O)[C@@H](N)Cc1ccc(O)cc1)[C@@H](C)O)C(C)C)C(=O)N[C@@H](CCC(N)=O)C(N)=O [YTKLVFIQ--NH2, Tyrosyl-threonyl-lysyl-leucyl-valyl-phenylalanyl-isoleucyl-glutamine-amide] (H-YTKLVFIQ-NH2) | 22 µM
2 | CC(=O)N[C@@H](Cc1ccc(O)cc1)C(=O)N[C@H](C(=O)N[C@@H](CCCCN)C(=O)N[C@@H](CC(C)C)C(=O)N[C@H](C(=O)N[C@@H](Cc1ccccc1)C(=O)N[C@@H](CCC(N)=O)C(=O)N[C@@H](CCC(N)=O)C(N)=O)C(C)C)[C@@H](C)O [Ac--YTKLVFEQ--NH2, Acetyl-tyrosyl-threonyl-lysyl-leucyl-valyl-phenylalanyl-glutaminyl-glutamine-amide] (Ac-YTKLVFQQ-NH2) | 99 µM
3 | CC[C@H](C)[C@H](NC(=O)[C@H](Cc1ccccc1)NC(=O)[C@@H](NC(=O)[C@H](CC(C)C)NC(=O)[C@H](CCCCN)NC(=O)[C@@H](NC(=O)[C@H](Cc1ccc(O)cc1)NC(C)=O)[C@@H](C)O)C(C)C)C(=O)N[C@@H](CCC(N)=O)C(N)=O [Ac--YTKLVFIQ--NH2, Acetyl-tyrosyl-threonyl-lysyl-leucyl-valyl-phenylalanyl-isoleucyl-glutamine-amide] (Ac-YTKLVFIQ-NH2) | 149 µM
4 | CSCC[C@H](NC(=O)[C@@H](NC(=O)[C@@H](N)Cc1ccc(O)cc1)[C@@H](C)O)C(=O)N[C@@H](CC(C)C)C(=O)N[C@H](C(=O)N[C@@H](C)C(=O)N[C@@H](Cc1ccccc1)C(=O)N[C@@H](CCC(N)=O)C(N)=O)C(C)C [YTMLVAFQ--NH2, Tyrosyl-threonyl-methionyl-leucyl-valyl-alanyl-phenylalanyl-glutamine-amide] (H-YTMLVAFQ-NH2) | 93 µM
5 | CC[C@H](C)[C@H](NC(=O)[C@H](Cc1c[nH]cn1)NC(=O)[C@@H](NC(=O)[C@H](CC(C)C)NC(=O)[C@H](CCCCN)NC(=O)[C@@H](NC(=O)[C@H](Cc1ccc(O)cc1)NC(C)=O)[C@@H](C)O)C(C)C)C(=O)N[C@@H](CCC(N)=O)C(N)=O [Ac--YTKLVHIQ--NH2, Acetyl-tyrosyl-threonyl-lysyl-leucyl-valyl-histidyl-isoleucyl-glutamine-amide] (Ac-YTKLVHIQ-NH2) | 81 µM
6 | CC[C@H](C)[C@H](NC(=O)[C@H](Cc1ccc(O)cc1)NC(=O)[C@@H](NC(=O)[C@H](CC(C)C)NC(=O)[C@H](Cc1c[nH]cn1)NC(=O)CNC(=O)[C@H](CCCNC(=N)N)NC(C)=O)C(C)C)C(=O)N[C@@H](CCC(N)=O)C(N)=O [Ac--RGHLVYIQ--NH2, Acetyl-arginyl-glycyl-histidyl-leucyl-valyl-tyrosyl-isoleucyl-glutamine-amide] (Ac-RGHLVYIQ-NH2) | 428 µM
7 | CC[C@H](C)[C@H](NC(=O)[C@H](C)NC(=O)[C@@H](NC(=O)[C@H](Cc1ccccc1)NC(=O)[C@H](CCCCN)NC(=O)[C@@H](NC(=O)[C@@H](N)Cc1ccc(O)cc1)[C@@H](C)O)C(C)C)C(=O)N[C@@H](CCC(N)=O)C(N)=O [YTKFVAIQ--NH2, Tyrosyl-threonyl-lysyl-phenylalanyl-valyl-alanyl-isoleucyl-glutamine-amide] (H-YTKFVAIQ-NH2) | 21 µM
8 | CC[C@H](C)[C@H](NC(=O)[C@H](C)NC(=O)[C@@H](NC(=O)[C@H](Cc1ccc(O)cc1)NC(=O)[C@H](CCCCN)NC(=O)[C@@H](NC(=O)[C@@H](N)Cc1ccc(O)cc1)[C@@H](C)O)C(C)C)C(=O)N[C@@H](CCC(N)=O)C(N)=O [YTKYVAIQ--NH2, Tyrosyl-threonyl-lysyl-tyrosyl-valyl-alanyl-isoleucyl-glutamine-amide] (H-YTKYVAIQ-NH2) | 64 µM
9 | CC[C@@H](C)[C@@H](NC(=O)[C@@H](Cc1ccccc1)NC(=O)[C@H](NC(=O)[C@@H](CC(C)C)NC(=O)[C@@H](Cc1c[nH]cn1)NC(=O)CNC(=O)[C@H](N)CCCNC(=N)N)C(C)C)C(=O)N[C@H](CCC(N)=O)C(N)=O [rGhlvfiq--NH2, D-arginyl-glycyl-D-histidyl-D-leucyl-D-valyl-D-phenylalanyl-D-isoleucyl-D-glutamine-amide] (HELM PEPTIDE1{[dR].G.[dH].[dL].[dV].[dF].[dI].[dQ].[am]}$$$$V2.0) | 270 µM
10 | CC[C@H](C)[C@H](NC(=O)[C@@H](CCc1ccccc1)NC(=O)[C@@H](NC(=O)[C@H](CC(C)C)NC(=O)[C@H](CCCCN)NC(=O)[C@@H](NC(=O)[C@H](Cc1ccc(O)cc1)NC(C)=O)[C@@H](C)O)C(C)C)C(=O)N[C@@H](CCC(N)=O)C(N)=O [Ac--YTKLV--(D-homo-F)--IQ--NH2, Acetyl-tyrosyl-threonyl-lysyl-leucyl-valyl-(D-homo-phenylalanyl)-isoleucyl- glutamine-amide] (HELM PEPTIDE1{[ac].Y.T.K.L.V.[O=C([C@@H](CCc1ccccc1)N[*:1])[*:2]].I.Q.[am]}$$$$V2.0) | 26 µM
11 | CC[C@H](C)[C@H](NC(=O)[C@H](C)NC(=O)[C@@H](NC(=O)[C@H](Cc1ccccc1)NC(=O)[C@H](CCSC)NC(=O)[C@@H](NC(=O)[C@@H](N)Cc1ccc(O)cc1)[C@@H](C)O)C(C)C)C(=O)N[C@@H](CCC(N)=O)C(N)=O [YTMFVAIQ--NH2, Tyrosyl-threonyl-methionyl-phenylalanyl-valyl-alanyl-isoleucyl-glutamine-amide] (H-YTMFVAIQ-NH2) | 114 µM
12 | CC[C@H](C)[C@H](NC(=O)[C@H](C)NC(=O)[C@@H](NC(=O)[C@H](CCc1ccccc1)NC(=O)[C@H](CCCCN)NC(=O)[C@@H](NC(=O)[C@@H](N)Cc1ccc(O)cc1)[C@@H](C)O)C(C)C)C(=O)N[C@@H](CCC(N)=O)C(N)=O [YTK--(homo-F)--VAIQ--NH2, Tyrosyl-threonyl-lysyl-(homo-phenylalanyl)-valyl-alanyl-isoleucyl-glutamine-amide] (HELM PEPTIDE1{Y.T.K.[O=C([C@H](CCc1ccccc1)N[*:1])[*:2]].V.A.I.Q.[am]}$$$$V2.0) | 52 µM

From patent US5618785A, “Peptide inhibitors of selectin binding” (Centocor, Inc., priority 1995, dated 1997)
